Molecules are shown by their SMILES.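 1) Cells in 96-well plates. 2) Compound, 48 h, 5 concentrations. 3) Linear interpolation between surrounding doses. 4) Unreached endpoint = highest concentration. GI50 = concentration required for 50% inhibition of growth.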 The source made the active and inactive calls. Rule as the data show it: active = GI50 up to about 1.1 µM and inactive = higher.

Common to all, as to assay: inhibition of tumour cell growth, NCI panel, 48 h
Assay [1] has as its system HCC 2998.
For assay [2], the system named is HCT-116.
The test system of assay [3] is HCT-15.
The subject of assay [4] is LOX IMVI.
Assay [5] concerns MOLT-4.
The test system of assay [6] is OVCAR-4.
The subject of assay [7] is RPMI-8226.
The test system of assay [8] is SF-539.
Assay [9] concerns SNB-78.
In assay [10] the test system is U-251.
Assay [11] deals with UACC-257.
For assay [12], the system named is Malme-3M.
For assay [13], the system named is SK-MEL-2.
The subject of assay [14] is UO-31.
Assay [15] relates to DU-145.
Assay [16] concerns Hs-578T.
The test system of assay [17] is MDA-MB-231.
Assay [18] concerns MDA-MB-435.
The test system of assay [19] is MDA-N.
Assay [20] relates to T47D.

In the case of `COc1ccc2c(c1OCC(=O)O)C(=O)C(CCC(=O)O)CC2` (stereo not given), the GI50 in assay [1] is > 100 µM (inactive); in assay [2] it was > 100 µM (inactive); in assay [3], more than 100 µM; in assay [4] it was > 100 µM (inactive); in assay [5], > 100 µM (inactive); in assay [6], > 100 µM (inactive). The GI50 in [7], in assay [8], in assay [9], in assay [10] and in assay [11] was > 100 µM (inactive) throughout.
Take `COc1cccc(NC(=O)CSc2nnc(-c3ccc(/N=C\c4ccc(Cl)cc4)cc3)o2)c1`: the GI50 in assay [2] was 17.2 µM (inactive); in assay [3], 17.3 µM; in assay [4] it was 20.2 µM (inactive); in assay [5], 23.4 µM (inactive); in [12], 17.7 µM (inactive); in [6], 37.4 µM (inactive). In addition, the GI50 was 18.2 µM (inactive) in [7]; 19 µM (inactive) in [13]; 40.3 µM (inactive) in [9]; 17.1 µM (inactive) in assay [10]; > 10 µM (inactive) in assay [11]; 18.5 µM (inactive) in assay [14].
Take `CC(C)(C)OC(=O)NCC(=O)OCc1ccccc1`: the GI50 is > 100 µM (inactive) in assay [1]; > 100 µM (inactive) in [2]; more than 100 µM in assay [3]; > 100 µM (inactive) in [4]; > 100 µM (inactive) in [5]; > 100 µM (inactive) in [12]. The GI50 in assay [8], in assay [13], in assay [9], in assay [10], in [11] and in [14] was > 100 µM (inactive) throughout.
For `NC1CCN(c2nc3ccccc3c3c2CCCC3)CC1`, the GI50 in assay [15] is 11.9 µM (inactive); in assay [1] it was 1.73 µM (inactive); in assay [2], 4.01 µM (inactive); in assay [3], 5.37 µM; in assay [16] it was 20.5 µM (inactive); in assay [4], 3.69 µM (inactive). The GI50 is 3.43 µM (inactive) in [17]; 2.2 µM (inactive) in assay [18]; 2.97 µM (inactive) in assay [19]; 2.09 µM (inactive) in [5]; 7.41 µM (inactive) in assay [12]; 1.38 µM (inactive) in assay [6]. Also, the GI50 in [7] was 1.8 µM (inactive); in assay [8], 3.33 µM (inactive); in assay [13] it was 5.12 µM (inactive); in assay [20], 2.18 µM (inactive); in [10], 4.59 µM (inactive); in assay [11], 2.1 µM (inactive). Besides, the GI50 in assay [14] is 4.05 µM (inactive).
Regarding `CC(=O)Oc1ccc2c(=O)c(C(C)=O)coc2c1`, the GI50 in assay [2] is > 100 µM (inactive); in assay [3] it was more than 100 µM; in assay [4] it was 81.8 µM (inactive); in assay [5] it was > 100 µM (inactive); in [6] it was > 100 µM (inactive); in assay [7] it was > 100 µM (inactive). For the same molecule, the GI50 in assay [8] is > 100 µM (inactive); in assay [13], > 100 µM (inactive); in assay [9], 80 µM (inactive); in assay [10] it was > 100 µM (inactive); in [11], > 100 µM (inactive); in assay [14] it was > 100 µM (inactive).
Take `COc1ccc(CC2C3=C(CCN2C(=O)C2CCC2)CC2(CC3)OCCO2)cc1O` (stereo not given): the GI50 is 26.5 µM (inactive) in [15]; 28.2 µM (inactive) in assay [1]; 34.6 µM (inactive) in [2]; 14.9 µM in [3]; 30.6 µM (inactive) in [16]; > 100 µM (inactive) in assay [4]. Further, the GI50 in assay [17] was 40.8 µM (inactive); in assay [18], 6.7 µM (inactive); in assay [19] it was 12.1 µM (inactive); in [5] it was 37 µM (inactive); in [12] it was 27.9 µM (inactive); in assay [6] it was 41.4 µM (inactive). Besides, the GI50 in assay [7] is 36.6 µM (inactive); in assay [8], 27.9 µM (inactive); in [13], 49.3 µM (inactive); in assay [20], 44.8 µM (inactive); in [10] it was 39.9 µM (inactive); in assay [11], 30.5 µM (inactive). Moreover, the GI50 in assay [14] is 0.182 µM (active).

Source of the values: ChEMBL document CHEMBL1201862, “PubChem BioAssay data set” (2004).
